This note sets out measurements from the Kinase Knowledgebase extract (Sharma et al. 2016).

The structures appear in SMILES notation.

In this test the target is CDK2 (human) (UniProt P24941). Kind of test: Enzyme Assay.
`COc1ccc(NC(=O)c2ccc(C(=O)Nc3ccc(CN)cc3)s2)c(C)c1` came in with a 50% inhibitory concentration (IC50) not below 40 µM.

In the case of `Cn1nc(C2CC2)cc1NC(=O)c1ccc(C(=O)Nc2ccc(-n3cncn3)cc2)s1`, the 50% inhibitory concentration (IC50) was in the range of 1 to 40 µM.

Compound `Cn1nc(-c2ccc(Cl)cc2)cc1NC(=O)c1ccc(C(=O)Nc2ccc(-n3cncn3)cc2)s1` registered an IC50 not below 40 µM.

With `Cc1cc(NC(=O)c2ccc(C(=O)Nc3ccc(-n4cncn4)cc3)s2)n(C)n1`, the IC50 fell in the range of 1 to 40 µM.

As for `O=C(Nc1ccc(-n2cncn2)cc1)c1ccc(C(=O)Nc2ccccn2)s1`, the concentration for half-maximal inhibition (IC50) was not below 40 µM.

On to `COc1ccc(C(=O)Nc2ccc(C(=O)Nc3ccc(-n4cncn4)c(F)c3)s2)c(C)c1`, for which the IC50 was not above 1 µM.

`COc1ccc(NC(=O)c2ccc(C(=O)Nc3ccc4c(cnn4C)c3)s2)c(C)c1` showed an IC50 not below 40 µM.

Compound `O=C(Nc1ccc(-n2cncn2)cc1)c1ccc(C(=O)Nc2ccccc2Cl)s1` yielded an IC50 not below 40 µM.

`O=C(Nc1ccncc1)c1ccc(C(=O)Nc2ccc(-n3cncn3)cc2)o1` registered an IC50 of 1 to 40 µM.

Turning to `CNCc1ccc(NC(=O)c2ccc(C(=O)Nc3ccc(-n4cncn4)c(F)c3)s2)c(C)c1`, the half-inhibitory concentration (IC50) is 1 to 40 µM.

The compound `CC(C)CNC(=O)c1ccc(C(=O)Nc2ccc(-n3cncn3)cc2)s1` displayed a half-inhibitory concentration (IC50) not below 40 µM.

`Cc1ccnc(NC(=O)c2ccc(C(=O)Nc3ccc(-n4cncn4)cc3)s2)c1` showed an IC50 not below 40 µM.

`CNCc1ccc(NC(=O)c2ccc(C(=O)Nc3ccc(-n4cncn4)cc3)s2)c(C)c1` came in with a concentration for half-maximal inhibition (IC50) of 1 to 40 µM.

For the compound `COc1ccc(NC(=O)c2ccc(C(=O)Nc3ccc(-n4cncn4)cc3)s2)cc1OC`, the concentration for half-maximal inhibition (IC50) is not below 40 µM.

In turn, `Cn1nc(-c2ccccc2)cc1NC(=O)c1ccc(C(=O)Nc2ccc(-n3cncn3)cc2)s1` returned a half-inhibitory concentration (IC50) of 1 to 40 µM.

In turn, `Cc1cc(OCCO)ccc1NC(=O)c1ccc(C(=O)Nc2ccc(-n3cncn3)cc2)s1` registered an IC50 not above 1 µM.

`O=C(Nc1ccc(-n2cncn2)cc1)c1ccc(C(=O)NC2CC2)s1` yielded an IC50 not below 40 µM.

The compound `COc1ccc(NC(=O)c2ccc(C(=O)Nc3ccc(-n4cncn4)cc3)s2)c(C)c1` came in with an IC50 not above 1 µM.

Regarding `O=C(Nc1ccc(-n2cncn2)cc1)c1ccc(C(=O)N[C@@H]2CC3CCC2C3)s1` (stereo not given in full), the IC50 was not below 40 µM.

Compound `Cn1cnc(CCNC(=O)c2ccc(C(=O)Nc3ccc(-n4cncn4)cc3)s2)c1` registered an IC50 not below 40 µM.

`COc1ccc(C(=O)Nc2ccc(C(=O)Nc3ccc(-n4cncn4)cc3)s2)cc1` gave an IC50 of 1 to 40 µM.

`O=C(Nc1ccc(-n2cncn2)c(F)c1)c1ccc(C(=O)Nc2ccccc2C(F)(F)F)s1` came in with an IC50 of 1 to 40 µM.

In the case of `COc1ccc(N(C)C(=O)c2ccc(C(=O)Nc3ccc(-n4cncn4)cc3)s2)c(C)c1`, the IC50 lay within 1 to 40 µM.

`O=C(NCc1nc2ccccc2[nH]1)c1ccc(C(=O)Nc2ccc(-n3cncn3)cc2)s1` registered a concentration for half-maximal inhibition (IC50) not below 40 µM.

On to `CC(C)[C@@H](CO)NC(=O)c1ccc(C(=O)Nc2ccc(-n3cncn3)cc2)s1`, for which the IC50 is not below 40 µM.

The compound `Cc1cnc(NC(=O)c2ccc(C(=O)Nc3ccc(-n4cncn4)cc3)s2)s1` registered an IC50 not below 40 µM.

`COc1ccc(NC(=O)c2ccc(C(=O)Nc3ccc(-c4c(C)noc4C)cc3)s2)c(C)c1` had an IC50 not below 40 µM.

As for `COc1ccc(NC(=O)c2ccc(C(=O)Nc3ccc(-n4cncn4)cc3)s2)c(C(=O)O)c1`, the IC50 fell in the range of 1 to 40 µM.

`O=C(Nc1ccc(-n2cncn2)c(F)c1)c1ccc(C(=O)N[C@H]2CC[C@H](O)CC2)o1` displayed an IC50 of 1 to 40 µM.

`CN(Cc1ccco1)C(=O)c1ccc(C(=O)Nc2ccc(-n3cncn3)cc2)s1` came in with a half-maximal inhibitory concentration (IC50) not below 40 µM.

The compound `Cc1ccccc1C(=O)Nc1ccc(C(=O)Nc2ccc(-n3cncn3)cc2)o1` yielded an IC50 not below 40 µM.

Take `COc1ccc(NC(=O)c2ccc(C(=O)N3CCC(c4ccncc4)C3)s2)c(C)c1` (stereo not given): the IC50 lay in the range of 1 to 40 µM.

`COC[C@H](C)NC(=O)c1ccc(C(=O)Nc2ccc(-n3cncn3)cc2)s1` returned an IC50 not below 40 µM.

In the case of `COc1ccc(NC(=O)c2ccc(C(=O)Nc3ccc(N4CCCCC4)cc3)s2)c(C)c1`, the concentration for half-maximal inhibition (IC50) is not below 40 µM.

For `O=C(Nc1ccc(C(=O)Nc2ccc(-n3cncn3)cc2)o1)c1ccccc1`, the IC50 is not below 40 µM.

One may read the IC50 as the point on the concentration scale where inhibition reaches its midpoint. Higher therefore signals lower potency.
